Marks after values point to notes of the source that are not given here.
How the values were obtained:
[1] = Exposure in male Swiss outbred mice following IV administration; format: in vivo; settings: IV 5 mg/kg
Method: The systemic exposures of NCL026, NCL195, NCL259 and NCL812 were studied in nonfasted male Swiss outbred mice weighing 26.2-32.1 g. Mice had access to food and water ad libitum throughout the pre- and post-dose sampling period. Each compound was administered IV via a bolus injection into the tail vein (vehicle 20% (v/v) DMSO in PEG400, 1 mL/kg dose volume, n=8 mice per compound). […] A maximum of two samples were obtained from each mouse, with samples being taken either via submandibular bleed (approximately 120 μL; conscious sampling) or terminal cardiac puncture (0.6 mL; while mice were anaesthetised using inhaled Isoflurane). No urine samples were collected as mice were housed in bedded cages during the study. Blood was collected directly into polypropylene Eppendorf tubes containing heparin as anticoagulant, and stabilisation cocktail (containing Complete® (a protease inhibitor cocktail with EDTA) and potassium fluoride) to minimise the potential for ex vivo degradation of the test compounds in blood/plasma samples. Once collected, blood samples were centrifuged immediately, supernatant plasma was removed, and stored at −80° C. until analysis by LC-MS using methods standard in the art. Each compound was administered in a vehicle composed of 20% (v/v) DMSO in PEG400. Formulations were prepared by dissolving the compounds in DMSO prior to addition of PEG400. Formulations were not filtered prior to dosing and were administered to mice within 2.5 h of preparation. […] The dose administered to each mouse was calculated on the basis of the measured concentration in the IV formulation, the dose volume and individual mouse body weight. Plasma concentration versus time data were analysed using non-compartmental methods (WinNonlin Version 6.3.0.395). Standard calculations for each pharmacokinetic parameter were calculated using standard methods in the art.

[2] = Solubility estimates using nephelometry; format: physicochemical; settings: pH 6.5 phosphate buffer
Method: Compound in DMSO was spiked into either pH 6.5 phosphate buffer or 0.01 M HCl (approx. pH 2.0) with the final DMSO concentration being 1%. Samples were then analysed via Nephelometry to determine a solubility range. (See C. D. Bevan and R. S. Lloyd, Anal. Chem. 2000, 72, 1781-1787).

[3] = values marked a, b are approximations

In the case of Cl.[H]/N=C(\N)NN=C(CC1CCCCC1)c1ccc(Cl)cc1 [NCL259], the “Apparent t1/2” value ([1]; plasma, value marked b is an approximation) is reported as 2.9 h, the AUC0-inf [1, 3] is reported as 5.5^a h * μM and the “Plasma CL” value [1, 3] is reported as 56.0^a mL/min/kg. The “Plasma Vss” value [1, 3] was 12.8^a L/kg and the “kinetic solubility under neutral pH conditions” value [2] was “more moderate”.

Source: US10392363B2, “Methods for treating protozoan infections” (Neoculi Pty Ltd., priority 2014, dated 2019)
